Data published in US20240254082A1, “Substituted Isoindoline-1, 3-diketone PDE4 Inhibitor and Pharmaceutical Application Thereof” (SUZHOU INTRAGRAND PHARMA CO., LTD, priority 2021, published 2024).

Key:
Assay type in all cases: biochemical
PDE3B = PDE3B (Homo sapiens, UniProt Q13370); assay: Selective inhibitory activity assay, PDE3B; settings: read-out: Inhibition rate (%) of PDE3B
Experimental: (§1) 7. Selective inhibitory activity assay for PDE1, 2, 3, 5, 7, 10 and 11 enzymes
(§2) The selective specificity of compounds for PDE4 was assessed by assaying single concentrations of the compounds. For example, PDE1a enzyme, PDElc enzyme, PDE2a enzyme, PDE3a enzyme, PDE3b enzyme, PDE5a1 enzyme, PDE7a enzyme, PDE7b enzyme, PDE10a1 enzyme and PDE11a4 enzyme were tested. The selective inhibitory effects of different compounds on the enzymatic activities of PDEIC, PDE2A, PDE3B, PDE5A1, PDE7A, and PDE10A1 at concentrations of 10 μM and 1 μM, respectively, are shown in the table below: […]

PDE5A1 = PDE5A1 (Homo sapiens, UniProt O76074); assay: Selective inhibitory activity assay, PDE5A1; settings: read-out: Inhibition rate (%) of PDE5A1
Experimental: as §1, §2

PDE10A1 = PDE10A1 (Homo sapiens, UniProt Q9Y233); assay: Selective inhibitory activity assay, PDE10A1; settings: read-out: Inhibition rate (%) of PDE10A1
Experimental: as §1, §2

PDE1C = PDE1C (Homo sapiens, UniProt Q14123); assay: Selective inhibitory activity assay, PDE1C; settings: read-out: Inhibition rate (%) of PDE1C
Experimental: as §1, §2

PDE2A = PDE2A (Homo sapiens, UniProt O00408); assay: Selective inhibitory activity assay, PDE2A; settings: read-out: Inhibition rate (%) of PDE2A
Experimental: as §1, §2

PDE7A = PDE7A (Homo sapiens, UniProt Q13946); assay: Selective inhibitory activity assay, PDE7A; settings: read-out: Inhibition rate (%) of PDE7A
Experimental: as §1, §2

PDE4D3 = PDE4D3 (Homo sapiens, UniProt Q08499); assay: Inhibition assay of PDE4D3 enzyme (TR-FRET kit)
Experimental: 2. Inhibition assay of PDE4D3 enzyme:
Materials and Instruments:
FAM substrate: A stock solution of 20 μM FAM substrate was diluted to 200 nM with PDE assay buffer. 12.5 μL of the diluted substrate was added to each reaction well.
5 μL of the compound stock solution was added to 45 μL of DMSO to prepare a 1 mM diluent. 5 μL of the 1 mM diluent was added to 45 μL of PDE assay buffer to prepare a gradient dilution starting point. Then, according to the method of adding 5 μL of the previous concentration solution to 15 μL of PDE assay buffer, gradient dilution was carried out for 9 times to prepare compound working solutions with 10 concentrations. The working solutions were added to compound wells at 2.5 μL/well.
PDE4D3: 0.054 μL of a PDE4D3 recombinase stock solution was added to 1500 μL of PDE buffer, and the mixture was added to all compound wells and positive control wells at 10 μL/well. 10 μL of PDE assay buffer was added to substrate control wells.
Binding solution: 3750 μL of binding buffer A and 3750 μL of binding buffer B were mixed well. Then, 150 μL of a binder was added into the mixture and mixed well. 7.5 μL of a Tb donor was added and mixed well. The obtained mixture was added to all wells at 50 μL/well.
S520=Read value of sample 520 nm
S490=Read value of sample 490 nm
Tb520=Read value of Tb only 520 nm
Tb490=Read value of Tb only 490 nm
FRETp=Positive control FRET
FRETsub=Substrate control FRET.

Chain of PDE4D3 (Q08499 1-673 isoform Q08499-2): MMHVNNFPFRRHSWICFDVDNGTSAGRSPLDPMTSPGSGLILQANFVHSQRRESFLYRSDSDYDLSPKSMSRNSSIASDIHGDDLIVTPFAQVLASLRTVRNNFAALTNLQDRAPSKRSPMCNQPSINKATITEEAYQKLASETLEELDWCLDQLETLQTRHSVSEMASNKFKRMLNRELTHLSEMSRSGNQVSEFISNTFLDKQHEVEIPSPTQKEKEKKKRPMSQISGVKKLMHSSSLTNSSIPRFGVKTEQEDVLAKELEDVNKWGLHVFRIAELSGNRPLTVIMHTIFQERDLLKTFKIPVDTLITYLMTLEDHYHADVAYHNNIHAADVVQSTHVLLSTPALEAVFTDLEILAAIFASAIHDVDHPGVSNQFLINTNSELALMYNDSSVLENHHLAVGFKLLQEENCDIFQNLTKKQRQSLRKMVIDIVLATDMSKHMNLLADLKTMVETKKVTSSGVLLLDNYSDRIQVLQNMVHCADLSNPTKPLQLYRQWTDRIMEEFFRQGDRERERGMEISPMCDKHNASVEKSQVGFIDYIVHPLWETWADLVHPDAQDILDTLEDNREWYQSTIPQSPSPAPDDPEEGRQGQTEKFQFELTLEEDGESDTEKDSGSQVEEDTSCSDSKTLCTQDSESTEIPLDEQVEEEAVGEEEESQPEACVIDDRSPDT
Chain of PDE7A (Q13946 whole entry, species assumed): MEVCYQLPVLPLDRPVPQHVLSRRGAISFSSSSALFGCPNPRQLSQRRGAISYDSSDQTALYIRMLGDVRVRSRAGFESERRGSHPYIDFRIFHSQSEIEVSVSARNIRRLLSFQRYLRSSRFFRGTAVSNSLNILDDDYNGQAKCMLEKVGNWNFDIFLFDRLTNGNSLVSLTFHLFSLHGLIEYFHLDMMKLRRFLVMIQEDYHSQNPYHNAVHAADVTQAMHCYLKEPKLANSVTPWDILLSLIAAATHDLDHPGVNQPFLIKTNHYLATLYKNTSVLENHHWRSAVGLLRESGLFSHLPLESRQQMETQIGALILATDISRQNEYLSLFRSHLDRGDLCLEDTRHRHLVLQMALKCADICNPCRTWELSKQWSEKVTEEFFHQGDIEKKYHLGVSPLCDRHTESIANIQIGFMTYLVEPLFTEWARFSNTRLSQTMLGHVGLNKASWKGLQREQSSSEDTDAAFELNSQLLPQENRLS
Chain of PDE10A1 (Q9Y233 1-779 isoform Q9Y233-1, species assumed): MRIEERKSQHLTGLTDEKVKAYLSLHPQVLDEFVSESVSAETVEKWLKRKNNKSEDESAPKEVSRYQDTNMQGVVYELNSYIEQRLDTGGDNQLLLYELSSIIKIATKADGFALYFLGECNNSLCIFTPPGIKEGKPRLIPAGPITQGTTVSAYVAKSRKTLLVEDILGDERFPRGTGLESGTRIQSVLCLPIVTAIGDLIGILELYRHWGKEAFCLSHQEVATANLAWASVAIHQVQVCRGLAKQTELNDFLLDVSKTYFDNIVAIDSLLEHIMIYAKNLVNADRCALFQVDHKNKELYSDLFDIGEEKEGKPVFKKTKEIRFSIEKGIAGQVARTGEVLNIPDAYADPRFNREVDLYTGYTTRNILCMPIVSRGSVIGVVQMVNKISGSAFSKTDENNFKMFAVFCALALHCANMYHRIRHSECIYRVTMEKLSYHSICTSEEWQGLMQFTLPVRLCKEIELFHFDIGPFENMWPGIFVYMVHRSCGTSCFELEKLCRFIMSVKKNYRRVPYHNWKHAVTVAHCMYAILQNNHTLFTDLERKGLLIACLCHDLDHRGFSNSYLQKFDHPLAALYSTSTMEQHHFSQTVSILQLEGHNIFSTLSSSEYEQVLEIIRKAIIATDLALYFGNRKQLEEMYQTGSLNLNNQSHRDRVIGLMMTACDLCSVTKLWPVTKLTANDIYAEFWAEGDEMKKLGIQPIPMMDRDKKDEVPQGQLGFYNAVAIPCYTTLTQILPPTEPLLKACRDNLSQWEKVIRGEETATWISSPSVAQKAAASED
Chain of PDE1C (Q14123 whole entry, species assumed): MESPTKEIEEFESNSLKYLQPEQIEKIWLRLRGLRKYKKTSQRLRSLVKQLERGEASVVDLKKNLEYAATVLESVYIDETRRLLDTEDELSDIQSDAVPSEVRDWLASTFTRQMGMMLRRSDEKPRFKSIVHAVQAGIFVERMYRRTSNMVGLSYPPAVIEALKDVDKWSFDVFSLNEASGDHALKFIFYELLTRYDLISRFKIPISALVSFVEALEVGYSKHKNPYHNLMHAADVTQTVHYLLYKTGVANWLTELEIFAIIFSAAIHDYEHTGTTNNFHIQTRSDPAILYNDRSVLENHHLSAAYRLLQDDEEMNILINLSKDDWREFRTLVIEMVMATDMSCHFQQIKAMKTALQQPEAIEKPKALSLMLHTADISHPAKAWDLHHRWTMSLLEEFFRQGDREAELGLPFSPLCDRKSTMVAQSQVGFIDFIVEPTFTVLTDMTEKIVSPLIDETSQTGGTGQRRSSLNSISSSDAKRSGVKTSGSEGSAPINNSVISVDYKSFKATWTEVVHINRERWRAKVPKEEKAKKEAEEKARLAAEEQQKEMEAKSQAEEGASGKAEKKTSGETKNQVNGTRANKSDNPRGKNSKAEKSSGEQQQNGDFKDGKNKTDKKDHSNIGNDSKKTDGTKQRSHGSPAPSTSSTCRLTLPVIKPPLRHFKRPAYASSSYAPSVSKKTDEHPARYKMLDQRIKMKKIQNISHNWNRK
Chain of PDE2A (O00408 whole entry, species assumed): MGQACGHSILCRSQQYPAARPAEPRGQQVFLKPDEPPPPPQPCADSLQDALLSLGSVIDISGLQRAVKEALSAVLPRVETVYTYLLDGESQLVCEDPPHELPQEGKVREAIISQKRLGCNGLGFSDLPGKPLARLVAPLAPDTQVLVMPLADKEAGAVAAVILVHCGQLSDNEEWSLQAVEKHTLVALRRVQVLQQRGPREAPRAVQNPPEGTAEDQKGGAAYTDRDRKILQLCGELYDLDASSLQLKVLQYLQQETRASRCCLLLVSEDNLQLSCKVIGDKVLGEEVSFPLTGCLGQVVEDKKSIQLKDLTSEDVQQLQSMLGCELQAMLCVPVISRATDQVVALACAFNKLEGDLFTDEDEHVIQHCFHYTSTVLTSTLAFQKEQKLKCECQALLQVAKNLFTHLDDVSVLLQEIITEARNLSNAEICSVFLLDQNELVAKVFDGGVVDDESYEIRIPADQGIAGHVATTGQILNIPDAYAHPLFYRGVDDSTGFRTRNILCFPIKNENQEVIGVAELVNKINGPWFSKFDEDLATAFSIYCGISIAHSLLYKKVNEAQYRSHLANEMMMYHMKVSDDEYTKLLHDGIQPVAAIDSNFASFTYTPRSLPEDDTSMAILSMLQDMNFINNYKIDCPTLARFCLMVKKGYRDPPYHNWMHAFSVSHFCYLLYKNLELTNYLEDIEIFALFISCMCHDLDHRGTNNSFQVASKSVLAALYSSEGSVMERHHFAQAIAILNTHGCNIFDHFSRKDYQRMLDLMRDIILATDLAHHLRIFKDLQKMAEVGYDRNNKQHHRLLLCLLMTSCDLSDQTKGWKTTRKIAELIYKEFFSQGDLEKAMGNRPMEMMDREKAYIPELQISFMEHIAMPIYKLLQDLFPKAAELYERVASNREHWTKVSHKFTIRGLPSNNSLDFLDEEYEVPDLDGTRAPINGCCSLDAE
Chain of PDE3B (Q13370 whole entry, species assumed): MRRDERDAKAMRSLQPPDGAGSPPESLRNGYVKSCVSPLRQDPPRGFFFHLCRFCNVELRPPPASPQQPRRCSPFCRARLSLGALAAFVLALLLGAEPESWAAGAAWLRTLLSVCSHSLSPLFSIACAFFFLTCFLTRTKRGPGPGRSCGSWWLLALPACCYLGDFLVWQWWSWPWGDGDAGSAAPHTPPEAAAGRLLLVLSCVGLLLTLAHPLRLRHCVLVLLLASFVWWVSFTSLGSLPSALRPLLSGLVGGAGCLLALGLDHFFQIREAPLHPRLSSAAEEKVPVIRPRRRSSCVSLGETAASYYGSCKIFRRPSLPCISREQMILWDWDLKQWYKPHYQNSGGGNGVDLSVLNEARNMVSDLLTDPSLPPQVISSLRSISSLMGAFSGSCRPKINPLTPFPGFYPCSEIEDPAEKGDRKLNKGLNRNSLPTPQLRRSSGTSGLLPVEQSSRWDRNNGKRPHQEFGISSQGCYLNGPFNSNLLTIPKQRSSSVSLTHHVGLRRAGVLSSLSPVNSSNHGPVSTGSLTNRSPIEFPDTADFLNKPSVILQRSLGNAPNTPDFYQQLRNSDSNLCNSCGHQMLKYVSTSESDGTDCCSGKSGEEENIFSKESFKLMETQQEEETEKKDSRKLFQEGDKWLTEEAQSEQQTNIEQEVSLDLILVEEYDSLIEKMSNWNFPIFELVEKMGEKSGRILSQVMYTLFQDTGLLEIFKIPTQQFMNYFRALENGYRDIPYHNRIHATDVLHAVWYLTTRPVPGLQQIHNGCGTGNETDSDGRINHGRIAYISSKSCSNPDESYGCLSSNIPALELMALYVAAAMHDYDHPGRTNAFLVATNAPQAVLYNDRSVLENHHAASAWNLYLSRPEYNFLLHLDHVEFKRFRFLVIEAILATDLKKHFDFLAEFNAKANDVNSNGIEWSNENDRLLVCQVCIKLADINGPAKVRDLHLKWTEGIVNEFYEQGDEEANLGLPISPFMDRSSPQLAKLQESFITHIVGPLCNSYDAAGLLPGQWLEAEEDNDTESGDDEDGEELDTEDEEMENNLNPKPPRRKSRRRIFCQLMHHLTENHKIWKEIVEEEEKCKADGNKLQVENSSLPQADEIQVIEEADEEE

SMILES | IC50 (PDE4D3) [nM] | also measured
CCCCCc1ccc(NC(=O)CCCl)c2c1C(=O)N([C@H](CS(C)(=O)=O)c1ccc(OC)c(OCC)c1)C2=O [Example 24] | 10 to 50 | inhibition at 1 µM (PDE3B): 0%; inhibition at 10 µM (PDE3B): -0.81%; inhibition at 1 µM (PDE5A1): 0%; inhibition at 10 µM (PDE5A1): 11.5%; inhibition at 1 µM (PDE10A1): 6.04%; inhibition at 10 µM (PDE10A1): 11.4%; inhibition at 1 µM (PDE1C): 3.89%; inhibition at 10 µM (PDE1C): 34.5%; inhibition at 1 µM (PDE2A): 0%; inhibition at 10 µM (PDE2A): 7.79%; inhibition at 1 µM (PDE7A): 0%; inhibition at 10 µM (PDE7A): 4.15%
CCCCCCCCCC(=O)Nc1cccc2c1C(=O)N([C@H](CS(C)(=O)=O)c1ccc(OC)c(OCC)c1)C2=O [Example 8, (S)-2-[1-(3-ethoxy-4-methoxyphenyl)-2-alkylsulfonylethyl]-4-decanamido-7-pentenyl (−1) isoindoline-1,3-diketone] | 50 to 200 | –
CCCCCc1ccc(NC(=O)CCC)c2c1C(=O)N([C@H](CS(C)(=O)=O)c1ccc(OC)c(OCC)c1)C2=O [Example 10, (S)-2-[1-(3-ethoxy-4-methoxyphenyl)-2-alkylsulfonylethyl]-4-butylamido-7-pentyl isoindoline-1,3-diketone] | 50 to 200 | –
CCCCCc1ccc(NC(=O)COC)c2c1C(=O)N([C@H](CS(C)(=O)=O)c1ccc(OC)c(OCC)c1)C2=O [Example 31] | 50 to 200 | –
CCCCCCCCCCCCCc1ccc(NC(=O)C2CC2)c2c1C(=O)N([C@H](CS(C)(=O)=O)c1ccc(OC)c(OCC)c1)C2=O [Example 15, (S)-2-[1-(3-ethoxy-4-methoxyphenyl)-2-alkylsulfonylethyl]-4-cyclopropanamido-7-tridecyl isoindoline-1,3-diketone] | > 200 | –
CCCCCCc1ccc(NC(=O)CCCCl)c2c1C(=O)N([C@H](CS(C)(=O)=O)c1ccc(OC)c(OCC)c1)C2=O [Example 20, (S)-2-[1-(3-ethoxy-4-methoxyphenyl)-2-alkylsulfonylethyl]-4-(γ-chlorobutyramido)-7-hexyl isoindoline-1,3-diketone] | 50 to 200 | –
CCCCCCCc1ccc(NC(=O)CCCCl)c2c1C(=O)N([C@H](CS(C)(=O)=O)c1ccc(OC)c(OCC)c1)C2=O [Example 21, (S)-2-[1-(3-ethoxy-4-methoxyphenyl)-2-alkylsulfonylethyl]-4-(γ-chlorobutyramido)-7-heptyl isoindoline-1,3-diketone] | > 200 | –
CCCCCCCCCCCCCc1ccc(NC(=O)CC)c2c1C(=O)N([C@H](CS(C)(=O)=O)c1ccc(OC)c(OCC)c1)C2=O [Example 19, (S)-2-[1-(3-ethoxy-4-methoxyphenyl)-2-alkylsulfonylethyl]-4-propanamido-7-tridecyl isoindoline-1,3-diketone] | > 200 | –
CCCCCC(=O)Nc1ccc(CCCCC)c2c1C(=O)N([C@H](CS(C)(=O)=O)c1ccc(OC)c(OCC)c1)C2=O [Example 12] | > 200 | –
CCCC#Cc1ccc(NC(C)=O)c2c1C(=O)N([C@H](CS(C)(=O)=O)c1ccc(OC)c(OCC)c1)C2=O [Example 7] | 10 to 50 | inhibition at 1 µM (PDE3B): 1.81%; inhibition at 10 µM (PDE3B): 0.06%; inhibition at 1 µM (PDE5A1): 0%; inhibition at 10 µM (PDE5A1): -2.87%; inhibition at 1 µM (PDE10A1): 0%; inhibition at 10 µM (PDE10A1): 1.3%; inhibition at 1 µM (PDE1C): 6.8%; inhibition at 10 µM (PDE1C): 26.5%; inhibition at 1 µM (PDE2A): 0.08%; inhibition at 10 µM (PDE2A): 2.65%; inhibition at 1 µM (PDE7A): 3.87%; inhibition at 10 µM (PDE7A): 15.5%
CCCCCCc1ccc2c(c1NC(=O)CCCCl)C(=O)N([C@H](CS(C)(=O)=O)c1ccc(OC)c(OCC)c1)C2=O [Example 1, (S)-2-[1-(3-ethoxy-4-methoxyphenyl)-2-alkylsulfonylethyl]-4-(γ-chlorobutyramido)-5-hexyl isoindoline-1,3-diketone] | 50 to 200 | –
CCCCCCCCCCCCCc1ccc(NC(C)=O)c2c1C(=O)N([C@H](CS(C)(=O)=O)c1ccc(OC)c(OCC)c1)C2=O [Example 14, (S)-2-[1-(3-ethoxy-4-methoxyphenyl)-2-alkylsulfonylethyl]-4-acetamido-7-tridecyl isoindoline-1,3-diketone] | > 200 | –
CCCCCCCCCc1ccc(NC(=O)CC)c2c1C(=O)N([C@H](CS(C)(=O)=O)c1ccc(OC)c(OCC)c1)C2=O [Example 18, (S)-2-[1-(3-ethoxy-4-methoxyphenyl)-2-alkylsulfonylethyl]-4-propanamido-7-nonyl isoindoline-1,3-diketone] | 50 to 200 | –
CCCCCCCCc1cc(NC(=O)C2CC2)c2c(c1)C(=O)N([C@H](CS(C)(=O)=O)c1ccc(OC)c(OCC)c1)C2=O [Example 3, (S)-2-[1-(3-ethoxy-4-methoxyphenyl)-2-alkylsulfonylethyl]-4-cyclopropanamido-5-octyl isoindoline-1,3-diketone] | > 200 | –
CCCCCc1ccc(CNC(C)=O)c2c1C(=O)N([C@H](CS(C)(=O)=O)c1ccc(OC)c(OCC)c1)C2=O [Example 4, (S)-2-[1-(3-ethoxy-4-methoxyphenyl)-2-alkylsulfonylethyl]-4-acetamidomethyl-7-pentyl isoindoline-1,3-diketone] | 10 to 50 | –
CCCCCc1ccc(NC(=O)C2CC2)c2c1C(=O)N([C@H](CS(C)(=O)=O)c1ccc(OC)c(OCC)c1)C2=O [Example 6, (S)-2-[1-(3-ethoxy-4-methoxyphenyl)-2-alkylsulfonylethyl]-4-cyclopropanamido-7-pentyl isoindoline-1,3-diketone] | 50 to 200 | –
CCCCCc1ccc(NC(=O)CO)c2c1C(=O)N([C@H](CS(C)(=O)=O)c1ccc(OC)c(OCC)c1)C2=O [Example 30] | 50 to 200 | –
CCCCCCCCCc1ccc(NC(=O)C2CC2)c2c1C(=O)N([C@H](CS(C)(=O)=O)c1ccc(OC)c(OCC)c1)C2=O [Example 17, (S)-2-[1-(3-ethoxy-4-methoxyphenyl)-2-alkylsulfonylethyl]-4-cyclopropanamido-7-nonyl isoindoline-1,3-diketone] | > 200 | –
CCCCc1ccc(NC(=O)CCl)c2c1C(=O)N([C@H](CS(C)(=O)=O)c1ccc(OC)c(OCC)c1)C2=O [Example 26, (S)-2-[1-(3-ethoxy-4-methoxyphenyl)-2-alkylsulfonylethyl]-4-chloroacetamido-7-butyl isoindoline-1,3-diketone] | 10 to 50 | –
CCCCCCCCc1ccc(NC(=O)CCCCl)c2c1C(=O)N([C@H](CS(C)(=O)=O)c1ccc(OC)c(OCC)c1)C2=O [Example 22, (S)-2-[1-(3-ethoxy-4-methoxyphenyl)-2-alkylsulfonylethyl]-4-(γ-chlorobutyramido)-7-octyl isoindoline-1,3-diketone] | > 200 | –
CCCCCCc1ccc2c(c1NC(=O)CC)C(=O)N([C@H](CS(C)(=O)=O)c1ccc(OC)c(OCC)c1)C2=O [Example 23, (S)-2-[1-(3-ethoxy-4-methoxyphenyl)-2-alkylsulfonylethyl]-4-propanamido-6-hexyl isoindoline-1,3-diketone] | 50 to 200 | –
CCCCCc1ccc(NC(=O)CC(C)C)c2c1C(=O)N([C@H](CS(C)(=O)=O)c1ccc(OC)c(OCC)c1)C2=O [Example 11] | > 200 | –
CCCC/C=C/c1ccc2c(c1NC(=O)CCCCl)C(=O)N([C@H](CS(C)(=O)=O)c1ccc(OC)c(OCC)c1)C2=O [Example 2, (S)-2-[1-(3-ethoxy-4-methoxyphenyl)-2-alkylsulfonylethyl]-4-(γ-chlorobutyramido)-5-hexene (−1) yl isoindoline-1,3-diketone] | 10 to 50 | –
CCCCCCCCCc1ccc(NC(=O)CCC)c2c1C(=O)N([C@H](CS(C)(=O)=O)c1ccc(OC)c(OCC)c1)C2=O [Example 16, (S)-2-[1-(3-ethoxy-4-methoxyphenyl)-2-alkylsulfonylethyl]-4-butylamido-7-nonyl isoindoline-1,3-diketone] | > 200 | –
